These results are taken from patent US7157083B2, “Compositions and methods for treating retroviral infections” (priority 1998, dated 2007).

The assay concerns HIV-1. As to the kind of experiment: Study 5 overall: resistance of naive PBMCs to HIV-1 challenge (RT activity and P-24 assay). Format: cell-based. The following applies: monocytes and macrophages incubated with hyaluronidase treated heat inactivated or Aldrathiol-2 treated virus. As to the method: Control groups were not treated with the enzyme. The virus was then titrated on macrophage/monocyte cultures and incubated at 37° C. for 48 hours at which time the macrophages and monocytes were washed 3×, resuspended and placed in fresh wells. Naïve PBMC's were overlayed on the macrophage/monocyte cultures and incubated at 37° C. for 72 hours. The PBMC's were then separated, washed and placed in fresh wells with fresh medium and rested for 48 hours. After a 48 hour rest period, the PBMC's were challenged with HIV-1 with and without PHA, I1-2, or both. […] These various assays are presented below in Table 10 .

Hyaluronidase: the “resistance of naïve PBMC's to HIV-1 challenge” value is listed as “up to 100%”.
